Measured values: patent publication US6294542A, “Pyrimidinone compounds, pharmaceutical compositions containing the compounds and the process for preparing the same” (Boryung Pharmaceutical Co. Ltd., priority 1998, dated 2001)

What was measured:
[1] = Acute Toxicity Test (oral, mice); assay type: in vivo; conditions: for LD50: mouse, in vivo, po
Description: Respective 5 mice of ICR system, which was distributed from Korean Laboratory Animal Center, were bred in a polycarbonate breeding box at a breeding environment of 23±1° C. of temperature, 55±5% of humidity, 10-15 times/hr of evacuation, 12 hr cycle of fluorescent light luminance, and 150-300 Lux of illumination.
After observing the mice for one week of acclimation breeding period, only normal mice were selected for laboratory work. The mice were fed with sterilized feed for laboratory animals, which was made by Cheil Jedang Co.,Ltd, and supplied with purified water to drink.
During the acclimation period, mice, who were evaluated to be healthy, were weighed and divided into groups randomly. Individual identification of laboratory animals was performed by indumentum pigment display and tag display per breeding box.
Establishment of dose was carried out according to a result of preliminary test in such a manner that a maximum dose group for both male and female was set to 5000 mg/kg and azeotropy was set to 1.71. Medium-high, medium and medium-low dose groups were respectively set as follows and a control group was administrated with physiological saline for injection.
Before administration of testing substances, body weight of the laboratory animals was in the range of 24-28 g in case of male and in the range of 19-28 g in case of female, respectively. The laboratory animals were aged 6 weeks.
Preparation of the testing substances was dissolved in physiological saline before administration. Dose was calculated according to the body weight which was measured before administration and dispensed by oral administration to a mouse who was in abrosia for 18 hours before testing.
Observation of clinical symptom such as general change, toxic symptom and mortality was performed for all laboratory animals once an hour during 6 hours after administration on the very administration day, and once a day from the next day to 14th day of administration.
Administration group, who was administered with testing substances, and the control group were weighed on the administration day, first, third, seventh, tenth and fourteenth days from the administration at a predetermined time for all animals who were alive.
After finish of the test, all animals were slightly anesthetized with ether and bleeding-killed. Appearance and internal organs of the animals were examined with naked eye carefully. Animals, who died during the text, were examined in the same manner.

[2] = tested on: Angiotensin II-induced pressor response; experiment: In vivo Angiotensin II antagonism in conscious normotensive rats; conditions: Rattus norvegicus, po; P.O.; conscious normotensive male SD rats; Angiotensin II 0.1 μg/kg; read-out: ID50 (dose of test compound necessary to produce 50% inhibition of Angiotensin II-induced pressor response)
Description: The antagonistic activity of the compound (I) against the angiotensin II, which is prepared by the process according to a preferred embodiment of the invention, was evaluated with relation to rats.
In vivo Angiotensin II antagonism in conscious normotensive rats.
Male SD rats (Charles River Japan, 9 weeks, 300-350 g) were anesthetized with pentobarbital at 50 mg/kg i.p. Both the left femoral artery and the right femoral vein were cannulated. A heparin-filled catheter (50U/ml) was tunneled subcutaneously (s.c.) to the dorsal side of the neck and exteriorized.
Rats were permitted to recover overnight from anesthesia and allowed free access to water, but food was withheld.
The next day, the femoral artery catheter was connected to a pressure transducer (COBE 041-500-508, USA) coupled to a polygraph (GRASS Model 7, USA) to monitor arterial blood pressure. After an appropriate equilibration period, Angiotensin II (0.1 μg/kg) was injected in the femoral vein three times during the control period.
Test compounds were then administered orally (p.o.) at a constant volume of 2 ml/kg.
Angiotensin II challenges were repeated at set times thereafter.
ID50 values, the dose of test compound necessary to produce 50% inhibition of Angiotensin II-induced pressor response, were calculated from peak inhibition percentage with several doses of test compound.

In the case of `CCCCc1nc(C)c(CC(=S)N2CCCC2)c(=O)n1Cc1ccc(-c2ccccc2-c2nnn[nH]2)cc1` [Compound 8, 2-n-butyl-5-pyrrolidinothiocarbonylmethyl-6-methyl-3-[[2'-(1H-tetrazol-5-yl)-biphenyl-4-yl]methyl]-pyrimidine-4(3H)-one], the “Final mortality (death number/total number)” value ([1]; female, 1000 mg/kg oral) is reported as 0/5, the “Mortality (death number/survival number)” value ([1]; female, 1000 mg/kg oral, day 0) is reported as 0/5 and the “Mortality (death number/survival number)” value ([1]; female, 1000 mg/kg oral, day 1) is reported as 0/5. For the same molecule, the “Mortality (death number/survival number)” value ([1]; female, 1000 mg/kg oral, day 2) was 0/5, the “Mortality (death number/survival number)” value ([1]; female, 1000 mg/kg oral, day 3) was 0/5 and the “Mortality (death number/survival number)” value ([1]; female, 1000 mg/kg oral, day 7) was 0/5. For the same molecule, the “Mortality (death number/survival number)” value ([1]; female, 1000 mg/kg oral, day 14) was 0/5, the “Final mortality (death number/total number)” value ([1]; female, 1710 mg/kg oral) was 0/5 and the “Mortality (death number/survival number)” value ([1]; female, 1710 mg/kg oral, day 0) was 0/5. The “Mortality (death number/survival number)” value ([1]; female, 1710 mg/kg oral, day 1) was 0/5, the “Mortality (death number/survival number)” value ([1]; female, 1710 mg/kg oral, day 2) was 0/5 and the “Mortality (death number/survival number)” value ([1]; female, 1710 mg/kg oral, day 3) was 0/5. For the same molecule, the “Mortality (death number/survival number)” value ([1]; female, 1710 mg/kg oral, day 7) was 0/5, the “Mortality (death number/survival number)” value ([1]; female, 1710 mg/kg oral, day 14) was 0/5 and the “Final mortality (death number/total number)” value ([1]; female, 2924 mg/kg oral) was 2/5. For the same molecule, the “Mortality (death number/survival number)” value ([1]; female, 2924 mg/kg oral, day 0) was 2/5, the “Mortality (death number/survival number)” value ([1]; female, 2924 mg/kg oral, day 1) was 0/3 and the “Mortality (death number/survival number)” value ([1]; female, 2924 mg/kg oral, day 2) was 0/3. The “Mortality (death number/survival number)” value ([1]; female, 2924 mg/kg oral, day 3) was 0/3, the “Mortality (death number/survival number)” value ([1]; female, 2924 mg/kg oral, day 7) was 0/3 and the “Mortality (death number/survival number)” value ([1]; female, 2924 mg/kg oral, day 14) was 0/3. The “Final mortality (death number/total number)” value ([1]; female, 5000 mg/kg oral) was 4/5, the “Mortality (death number/survival number)” value ([1]; female, 5000 mg/kg oral, day 0) was 4/5 and the “Mortality (death number/survival number)” value ([1]; female, 5000 mg/kg oral, day 1) was 0/1. The “Mortality (death number/survival number)” value ([1]; female, 5000 mg/kg oral, day 2) was 0/1, the “Mortality (death number/survival number)” value ([1]; female, 5000 mg/kg oral, day 3) was 0/1 and the “Mortality (death number/survival number)” value ([1]; female, 5000 mg/kg oral, day 7) was 0/1. The “Mortality (death number/survival number)” value ([1]; female, 5000 mg/kg oral, day 14) was 0/1, the “Final mortality (death number/total number)” value ([1]; male, 1000 mg/kg oral) was 0/5 and the “Mortality (death number/survival number)” value ([1]; male, 1000 mg/kg oral, day 0) was 0/5. For the same molecule, the “Mortality (death number/survival number)” value ([1]; male, 1000 mg/kg oral, day 1) was 0/5, the “Mortality (death number/survival number)” value ([1]; male, 1000 mg/kg oral, day 2) was 0/5 and the “Mortality (death number/survival number)” value ([1]; male, 1000 mg/kg oral, day 3) was 0/5. For the same molecule, the “Mortality (death number/survival number)” value ([1]; male, 1000 mg/kg oral, day 7) was 0/5, the “Mortality (death number/survival number)” value ([1]; male, 1000 mg/kg oral, day 14) was 0/5 and the “Final mortality (death number/total number)” value ([1]; male, 1710 mg/kg oral) was 2/5. The “Mortality (death number/survival number)” value ([1]; male, 1710 mg/kg oral, day 0) was 2/5, the “Mortality (death number/survival number)” value ([1]; male, 1710 mg/kg oral, day 1) was 0/3 and the “Mortality (death number/survival number)” value ([1]; male, 1710 mg/kg oral, day 2) was 0/3. For the same molecule, the “Mortality (death number/survival number)” value ([1]; male, 1710 mg/kg oral, day 3) was 0/3, the “Mortality (death number/survival number)” value ([1]; male, 1710 mg/kg oral, day 7) was 0/3 and the “Mortality (death number/survival number)” value ([1]; male, 1710 mg/kg oral, day 14) was 0/3. For the same molecule, the “Final mortality (death number/total number)” value ([1]; male, 2924 mg/kg oral) was 3/5, the “Mortality (death number/survival number)” value ([1]; male, 2924 mg/kg oral, day 0) was 3/5 and the “Mortality (death number/survival number)” value ([1]; male, 2924 mg/kg oral, day 1) was 0/2. The “Mortality (death number/survival number)” value ([1]; male, 2924 mg/kg oral, day 2) was 0/2, the “Mortality (death number/survival number)” value ([1]; male, 2924 mg/kg oral, day 3) was 0/2 and the “Mortality (death number/survival number)” value ([1]; male, 2924 mg/kg oral, day 7) was 0/2. For the same molecule, the “Mortality (death number/survival number)” value ([1]; male, 2924 mg/kg oral, day 14) was 0/2, the “Final mortality (death number/total number)” value ([1]; male, 5000 mg/kg oral) was 4/5 and the “Mortality (death number/survival number)” value ([1]; male, 5000 mg/kg oral, day 0) was 2/5. The “Mortality (death number/survival number)” value ([1]; male, 5000 mg/kg oral, day 1) was 1/3, the “Mortality (death number/survival number)” value ([1]; male, 5000 mg/kg oral, day 2) was 0/2 and the “Mortality (death number/survival number)” value ([1]; male, 5000 mg/kg oral, day 3) was 0/2. The “Mortality (death number/survival number)” value ([1]; male, 5000 mg/kg oral, day 7) was 1/2, the “Mortality (death number/survival number)” value ([1]; male, 5000 mg/kg oral, day 14) was 0/1 and the LD50 ([1]; female mice) was 4060 mg/kg. It also gave an LD50 ([1]; male mice) of 3170 mg/kg and an ED50 [2] of 0.93 mg/kg.
